Reference: patent US20240285545A1, “NANOSUSPENSION FORMULATION FOR TREATMENT OF PULMONARY FIBROSIS” (The Johns Hopkins University, priority 2023, published 2024)

Experiments:
silicotic animals = details: daily oral 100 mg/kg; model with lower silica dose (2.5 mg/mouse); cited from earlier work
[1] = oral administration of 100 mg/kg NTB, prior studies; cited from earlier work
[2] = free-base form; cited from earlier work
[3] = tested on: silica-induced pulmonary fibrosis model; assay: Therapeutic efficacy in silica-induced pulmonary fibrosis model (histology, lung mechanics); assay type: in vivo, C57BL/6 mice; details: oral 100 mg/kg daily
Experimental: The Study design for assessing the therapeutic efficacy of NTB-NS in a preclinical silica-induced pulmonary fibrosis model is shown in FIG. 7. The silicosis model was established by a single intratracheal instillation of silica microparticles (800 mg/kg) into the lungs of C57BL/6 mice (Silicosis); in parallel, healthy control animals received saline in an identical manner (Control). Fifteen days after the silica instillation, animals were randomly assigned to different groups to receive oral daily doses of NTB-Esy at 100 mg/kg or intratracheal NTB-NS at a NTB dose of 0.1 or 1 mg/kg every 72 hours. Lungs were harvested for analysis at Day 34. IT: intratracheal; OR: oral. […]
For lung mechanics analysis at the end of treatments, mice were sedated with diazepam (1 mg/kg, intraperitoneal), anesthetized with thiopenthal sodium (20 mg/kg, intraperitoneal), tracheotomized, paralyzed with vecuronium bromide (0.005 mg/kg, intravenous), and ventilated with a constant flow ventilator (Samay VR 15, Montevideo, Uruguay) using the following parameters: frequency 100 breaths/min; tidal volume 0.2 mL; fraction of inspired oxygen 0.21. […] Data were analyzed using ANADAT data analysis software (RHT-InfoData Inc., Montreal Canada).
For histological analysis, left lung tissues were fixed with 4% paraformaldehyde and embedded in paraffin blocks. […] The granuloma fraction was calculated as follows: […]

Row | Compound | Fibrotic score in the lungs of silicotic animals (silicotic animals) | Amount of drug available in mouse lungs [1] | Aqueous solubility [2] | Area of collagen deposition in alveolar septa versus untreated silicotic animals [3] | Static lung elastance (Est,L) [3]
1 | COC(=O)c1ccc2c(c1)NC(=O)/C2=C(\Nc1ccc(N(C)C(=O)CN2CCN(C)CC2)cc1)c1ccccc1 [NTB, Nintedanib] | significantly reduces | approximately 2.5 μg | low aqueous solubility |  | 
2 | CCS(=O)(=O)O.COC(=O)c1ccc2c(c1)NC(=O)/C2=C(\Nc1ccc(N(C)C(=O)CN2CCN(C)CC2)cc1)c1ccccc1 [NTB-Esy, NTB Esylate] |  |  |  | unlike 100 mg/kg oral NTB-Esy, significantly reduced | unlike oral NTB-Esy (100 mg/kg, daily), significantly decreased
